Assay results: patent US5089623A, “Certain imidate insecticides” (Imperial Chemical Industries Plc, priority 1990, dated 1992)

Assays:
Type in all cases: in vivo
[1] = system: Cabbage Looper [Trichoplusia ni (Hubner)]; experiment: Cabbage looper test (CL); settings: second-instar larvae, 3-5 days, percent in solution
[2] = system: Housefly [Musca domestica]; experiment: Housefly insecticidal test (HF); settings: per 25 female houseflies, 48 hours
[3] = system: Aster Leafhopper [Macrosteles fascifrens (Stal)]; experiment: Aster leafhopper test (LH); settings: adults/nymphs, 48 hours, percent in solution
[4] = system: Tobacco Budworm [Heliothis virescens (Fabricius)] eggs; experiment: Tobacco budworm egg test (TBW-E); settings: percent in solution
[5] = system: Maize weevil [Sitophilus Zeamais (Motschulsky)]; experiment: Maize weevil test (MW); settings: adult weevils, treated corn seeds, 48 hours, percent in solution
Outline: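 Adult weevils (10) were placed with four corn seeds that had been dipped 2-3 s in compound dissolved in 50:50 acetone:water, then dried, and held at about 25° C. Mortality was scored at 48 h. LC50 was taken from dosage-mortality curves and expressed as percent compound in solution, from a 0.01% top concentration.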

Structure (SMILES)	LC50 CL [1]	LC50 HF [2]	LC50 LH [3]	LC50 TBW E [4]	LC50 MW [5]
CC(C)C(=Nc1cc(F)ccc1Cl)OCc1ccc(F)c(Oc2ccc(F)cc2)c1 [Compound 303]	0.0015%	> 100 µg	0.0005%	> 0.1%	
CC(C)C(=Nc1ccc2c(c1)OCO2)OCc1cccc(Oc2ccc(F)cc2)n1 [Compound 465]	0.0017%	8 µg	0.0025%	0.027%	
COc1ccc(OC)c(N=C(OCc2cccc(Oc3ccccc3)c2)C(C)C)c1 [Compound 69]	0.09%	> 100 µg	> 0.05%	> 0.1%	
CC(C)C(=Nc1cccc([N+](=O)[O-])c1)OCc1cccc(Oc2ccc(Cl)cc2)c1 [Compound 271]	0.0004%	27 µg	> 0.05%	0.1%	
CC(C)C(=Nc1cc(Cl)c(Cl)c(Cl)c1)OCc1cccc(Oc2ccccc2)c1 [Compound 20]	0.0025%	64 µg	0.003%	< 0.1%	
CC(C)C(=Nc1c(F)c(F)cc(F)c1F)OCc1cccc(Oc2ccccc2)c1 [Compound 57]	0.004%	> 100 µg	0.0005%	0.1%	
CCc1cccc(N=C(OCc2cccc(Oc3ccccc3)c2)C(C)(C)C)c1 [Compound 162]	0.035%	> 100 µg	> 0.05%	> 0.1%	
CC(C)C(=Nc1ccc(Cl)cc1)OC(C)c1cccc(Oc2ccccc2)c1 (centres unmarked) [Compound 457]	0.009%	> 100 µg	> 0.05%	> 0.05%	
CC(C)C(=Nc1ccc(C(F)(F)F)c(Cl)c1)OCc1cccc(Oc2ccccc2)c1 [Compound 83]	0.007%	> 100 µg	> 0.05%	> 0.1%	
CCc1ccc(N=C(OCc2cccc(Oc3ccc(F)cc3)c2)C(C)C)cc1 [Compound 159]	0.001%	25 µg	0.0025%	0.08%	
COc1c(Cl)cc(N=C(OCc2cccc(Oc3ccccc3)c2)C(C)C)cc1Cl [Compound 91]	0.002%	37 µg	0.003%	> 0.01%	
CC(C)C(=Nc1c(Cl)cc([N+](=O)[O-])cc1Cl)OCc1cccc(Oc2ccccc2)c1 [Compound 92]	0.015%	> 100 µg	> 0.05%	> 0.1%	
Cc1ccc(Oc2cccc(COC(=Nc3ccc(F)c(Cl)c3)C(C)C)c2)cc1 [Compound 225]	0.0025%	> 100 µg	> 0.05%	> 0.1%	
CC(C)(Cl)C(=Nc1ccc(C#N)c(Cl)c1)OCc1cccc(Oc2ccccc2)c1 [Compound 108]	0.002%	44 µg	> 0.01%	> 0.1%	
CCOC(=O)c1cc(N=C(OCc2cccc(Oc3ccccc3)c2)C(C)C)ccc1Cl [Compound 102]	0.075%	> 100 µg	> 0.05%	> 0.1%	
CC(C)(C)C(=Nc1ccc(Br)cc1)OCc1cccc(Oc2ccccc2)c1 [Compound 135]	0.004%	> 100 µg	> 0.05%	> 0.1%	
Cc1ccc(N=C(OCc2cccc(Oc3ccccc3)c2)C(C)C)cc1Cl [Compound 90]	> 0.1%	> 100 µg	0.001%	0.016%	
CC(C)C(=Nc1ccc(Br)cc1)OCc1cccc(Oc2ccccc2)c1 [Compound 131]	0.0045%	17 µg	0.005%	> 0.1%	

Structure (SMILES)	LC50 CL [1]	LC50 HF [2]	LC50 LH [3]	LC50 TBW E [4]	LC50 MW [5]
CC(C)C(=Nc1c(F)cc(F)cc1Br)OCc1cccc(Oc2ccccc2)c1 [Compound 129]	0.005%	> 100 µg	0.01%	> 0.1%	
CC(C)C(=Nc1cccc(C(F)(F)F)c1)OCC#CCOc1ccccc1 [Compound 548]	< 0.1%	> 100 µg	> 0.05%	> 0.1%	
CC(C)C(=Nc1ccc(OC(F)(F)F)cc1)OCc1cccc(Oc2ccccc2)c1 [Compound 70]	< 0.1%	< 100 µg	> 0.05%	0.01%	
Cc1c(Cl)cc(N=C(OCc2cccc(Oc3ccccc3)c2)C(C)C)cc1Cl [Compound 101]	0.0045%	81 µg	0.0008%	> 0.1%	
Fc1ccc(Oc2cccc(COC(=Nc3ccc(F)c(Cl)c3)C(F)(F)C(F)(F)F)c2)cc1 [Compound 258]	0.003%	> 100 µg	> 0.05%	> 0.1%	
Clc1ccc(N=C(OCc2cccc(Oc3ccccc3)c2)C(Cl)Cl)c2ccccc12 [Compound 98]	0.016%	> 100 µg	> 0.05%	0.1%	
CC(C)C(=Nc1ccc(I)cc1)OCc1cccc(Oc2ccccc2)c1 [Compound 137]	0.003%	18 µg	0.008%	0.04%	
CCCC(=Nc1ccc2c(c1)OCO2)OCc1cccc(Oc2ccccc2)c1 [Compound 188]	0.002%	12 µg	> 0.05%	> 0.1%	
CCc1ccc(N=C(OCc2cccc(Oc3ccccc3)c2)C(C)C)cc1 [Compound 161]	0.0014%	15 µg	0.002%	0.07%	
CC(C)CC(=Nc1cc(Cl)cc(Cl)c1)OCc1cccc(Oc2ccccc2)c1 [Compound 10]	0.01%	> 100 µg	> 0.05%	> 0.1%	
CC(C)C(=Nc1ccc2c(c1)OC(C)(C)O2)OCc1ccc(F)c(Oc2ccccc2)c1 [Compound 242]	0.00025%	< 100 µg	> 0.05%	> 0.1%	
CC(C)C(=Nc1ccc(F)c(Cl)c1)OCc1cccc(Oc2c(F)c(F)c(F)c(F)c2F)c1 [Compound 460]	0.02%	> 100 µg		> 0.1%	> 0.01%
CC(C)C(=Nc1ccc(Cl)cc1)OCc1cccc(Oc2ccc(Cl)cc2)n1 [Compound 554]	0.00075%	> 100 µg		0.04%	> 0.01%
CCc1ccc(N=C(OCc2cccc(Oc3ccc(F)cc3)c2)C(C)C)cc1Cl [Compound 438]	0.0009%	> 100 µg		< 0.1%	> 0.01%
Cc1cccc(N=C(OCc2cccc(Oc3ccc(F)cc3)c2)C(C)C)c1 [Compound 405]	> 0.1%	< 100 µg		> 0.1%	> 0.01%
CCOc1ccc(N=C(OCc2cccc(Oc3ccccc3)c2)C(C)C)cc1Cl [Compound 368]	0.002%	< 100 µg		0.04%	> 0.01%
CC(C)C(=Nc1ccc(C(F)(F)F)c(Br)c1)OCc1ccc(F)c(Oc2ccccc2)c1 [Compound 434]	0.0017%	< 100 µg		> 0.1%	0.009%
